The text below walks through data of patent publication US20220089592A1, “IMIDAZO[1,2-A]PYRIDINYL DERIVATIVES AS IRAK4 INHIBITORS” (priority 2019, published 2022).

The IC50 is the concentration that inhibits the measured activity by half. High values mean weaker potency, low ones greater potency.

The target in the assay is T1, IRAK4 (Homo sapiens, UniProt Q9NWZ3).
T1 sequence (Q9NWZ3 1-460): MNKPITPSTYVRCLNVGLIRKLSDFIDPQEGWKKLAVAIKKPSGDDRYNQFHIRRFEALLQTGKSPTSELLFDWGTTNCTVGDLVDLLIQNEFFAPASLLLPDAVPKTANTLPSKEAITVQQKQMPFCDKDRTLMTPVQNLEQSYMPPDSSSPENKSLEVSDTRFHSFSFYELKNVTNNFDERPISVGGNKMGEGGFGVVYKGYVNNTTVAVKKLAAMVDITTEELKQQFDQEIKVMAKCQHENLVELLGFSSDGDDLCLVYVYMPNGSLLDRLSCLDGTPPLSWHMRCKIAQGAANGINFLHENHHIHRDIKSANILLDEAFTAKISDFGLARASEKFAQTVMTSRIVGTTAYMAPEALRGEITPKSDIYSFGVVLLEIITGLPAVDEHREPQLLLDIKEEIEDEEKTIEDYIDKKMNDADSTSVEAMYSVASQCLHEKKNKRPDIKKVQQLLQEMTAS
The experiment in a line: 2-hour 10 μM ATP Biochemical Assay (MesoScale Detection format; IRAK4 phosphorylation of biotin labeled IRAK1 activation loop peptide). The conditions noted are these: IRAK4 MSD BIOCHEMICAL (10 μM ATP) IC50 (μM), 1 nM IRAK4, 2 hours. The protocol: The 2-hour 10 μM ATP Biochemical Assay employs a MesoScale Detection (MSD) format.
The activity is quenched with 11 μl of 70 mM EDTA, pH 8.
To detect the phosphorylated biotinylated peptide substrate, 30 μl of the quenched reaction mixture is added to equivalent wells of a 384 well streptavidin coated MesoScale plate (Meso Scale Discovery #L21SA-1). After a 1 hour incubation of the plate for 1 hour at room temperature with gentle mixing, the plate wells are washed 3 times with 50 mM Tris, pH 7.5, 150 mM NaCl, 0.02% Tween-20.
A 25 μl volume of 1:500 anti-P-Threonine Rabbit polyclonal Antibody plus 1:500 Goat-anti-Rabbit Sulfo Tag Antibody (Meso Scale Discovery R32AB-1) in 50 mM Tris, pH 7.5, 150 mM NaCl, 0.02% Tween-20 plus 2% BSA is then added to each well. After a 1-hour incubation of the plate for 1 hour at room temperature with gentle mixing, the plate wells are washed, 3 times with 50 mM Tris, pH 7.5, 150 mM NaCl, 0.02% Tween-20. A 40 μl volume of 2×MSD Read Buffer (Meso Scale Discovery R92TC-1) is added to each well, and the plate is read immediately in an MSD Plate Reader (Meso Scale Discovery).
As to `CCOc1cc2nc(C)c(C)n2cc1NC(=O)c1cccc(C(F)(F)F)n1` [Example 58, N-(7-ethoxy-2,3-dimethylimidazo[1,2-a]pyridin-6-yl)-6-(trifluoromethyl)picolinamide], the 50% inhibitory concentration (IC50) amounted to 0.11 µM.
Next, `CCOc1cc2nc3c(n2cc1NC(=O)c1cccc(C(F)(F)F)n1)CNCC3` [Example 64, N-(7-ethoxy-1,2,3,4-tetrahydroimidazo[1,2-a:5,4-c′]dipyridin-8-yl)-6-(trifluoromethyl)picolinamide]: 0.68 µM; `CCOc1cc2nc(C3CCN(C)CC3)cn2cc1NC(=O)c1cccc(C(F)(F)F)n1` [Example 67, N-(7-ethoxy-2-(1-methylpiperidin-4-yl)imidazo[1,2-a]pyridin-6-yl)-6-(trifluoromethyl)picolinamide]: 0.001 µM; `CCOc1cc2nc(C3CC3)cn2cc1NC(=O)c1cccn(CC(F)(F)F)c1=O` [Example 70, N-(2-cyclopropyl-7-ethoxyimidazo[1,2-a]pyridin-6-yl)-2-oxo-1-(2,2,2-trifluoroethyl)-1,2-dihydropyridine-3-carboxamide]: 0.15 µM.
Next, `CCOc1cc2nc(C3CC3)cn2cc1NC(=O)c1cccnc1OCC(F)(F)F` [Example 71, N-(2-cyclopropyl-7-ethoxyimidazo[1,2-a]pyridin-6-yl)-2-(2,2,2-trifluoroethoxy)nicotinamide]: 0.66 µM; `CCc1cn2cc(NC(=O)c3cccc(C(F)F)n3)cc(F)c2n1` [Example 76, 6-(difluoromethyl)-N-(2-ethyl-8-fluoroimidazo[1,2-a]pyridin-6-yl)picolinamide]: 0.17 µM; `O=C(Nc1cnc2nc(C3CC3)cn2c1)c1cccc(C(F)(F)F)n1` [Example 92, N-(2-cyclopropylimidazo[1,2-a]pyrimidin-6-yl)-6-(trifluoromethyl)picolinamide]: 0.076 µM.
Next, `O=C(Nc1cn2cc(C3CC3)nc2cc1OCCN1CCOCC1)c1cccc(C(F)F)n1` [Example 102, N-(2-cyclopropyl-7-(2-morpholinoethoxy)imidazo[1,2-a]pyridin-6-yl)-6-(difluoromethyl)picolinamide]: 0.061 µM; `O=C(Nc1cc(OCc2ccccc2)c2nc(C3CCOCC3)cn2c1)c1cccc(C(F)(F)F)n1` [Example 103, N-(8-(benzyloxy)-2-(tetrahydro-2H-pyran-4-yl)imidazo[1,2-a]pyridin-6-yl)-6-(trifluoromethyl)picolinamide]: 0.023 µM.
In turn, `O=C(Nc1cc(O)c2nc(C3CCOCC3)cn2c1)c1cccc(C(F)(F)F)n1` [Example 104, N-(8-hydroxy-2-(tetrahydro-2H-pyran-4-yl)imidazo[1,2-a]pyridin-6-yl)-6-(trifluoromethyl)picolinamide] showed a 50% inhibitory concentration (IC50) of 0.13 µM.
Molecule `O=C(Nc1cc(Br)c2nc(C3CCOCC3)cn2c1)c1cccc(C(F)(F)F)n1` [Example 106, N-(8-bromo-2-(tetrahydro-2H-pyran-4-yl)imidazo[1,2-a]pyridin-6-yl)-6-(trifluoromethyl)picolinamide] yielded a concentration for half-maximal inhibition (IC50) of 0.027 µM.
The value for `O=C(Nc1cc(C2=CCOCC2)c2nc(C3CCOCC3)cn2c1)c1cccc(C(F)(F)F)n1` [Example 107, N-(8-(3,6-dihydro-2H-pyran-4-yl)-2-(tetrahydro-2H-pyran-4-yl)imidazo[1,2-a]pyridin-6-yl)-6-(trifluoromethyl)picolinamide] was 0.084 µM; that for `CCOc1cc2nc(C3CCOC(C)(C)C3)cn2cc1NC(=O)c1cccc(C(F)(F)F)n1` (centres unmarked) [Example 113, N-(2-(2,2-dimethyltetrahydro-2H-pyran-4-yl)-7-ethoxyimidazo[1,2-a]pyridin-6-yl)-6-(trifluoromethyl)picolinamide] was 0.001 µM.
The value for `CCOc1cc2nc([C@H]3C[C@H](OC)C3)cn2cc1NC(=O)c1cccc(C(F)F)n1` [Example 114, 6-(difluoromethyl)-N-(7-ethoxy-2-((1r,3r)-3-methoxycyclobutyl)imidazo[1,2-a]pyridin-6-yl)picolinamide] was 0.001 µM.
